Experimental data from US8415469B2, “Compounds and methods for kinase modulation, and indications therefor” (Plexxikon Inc., priority 2005, dated 2013).
Each block holds one compound with its values, some of them ahead of it.

Legend:
[1] = test system: human gastric cancer cell line MKN28; conditions: cited from earlier work
[2] = test system: U87MG glioma cells; conditions: cited from earlier work
[3] = test system: brain TNF production; conditions: mice, intracerebroventricular lipopolysaccharide; cited from earlier work
[4] = test system: primary cultures of human and murine microglia; conditions: stimulated with endotoxins or Abeta 1-40; cited from earlier work
[5] = target: T1, Flt3 (Homo sapiens, UniProt P36888); assay: Z'-Lyte FRET kinase assay (Invitrogen), Flt3; type: biochemical; conditions: read-out: IC50, activity toward kinase Flt3
T1 construct: purchased Invitrogen (assay run by Invitrogen)
T1 sequence (P36888 27-993): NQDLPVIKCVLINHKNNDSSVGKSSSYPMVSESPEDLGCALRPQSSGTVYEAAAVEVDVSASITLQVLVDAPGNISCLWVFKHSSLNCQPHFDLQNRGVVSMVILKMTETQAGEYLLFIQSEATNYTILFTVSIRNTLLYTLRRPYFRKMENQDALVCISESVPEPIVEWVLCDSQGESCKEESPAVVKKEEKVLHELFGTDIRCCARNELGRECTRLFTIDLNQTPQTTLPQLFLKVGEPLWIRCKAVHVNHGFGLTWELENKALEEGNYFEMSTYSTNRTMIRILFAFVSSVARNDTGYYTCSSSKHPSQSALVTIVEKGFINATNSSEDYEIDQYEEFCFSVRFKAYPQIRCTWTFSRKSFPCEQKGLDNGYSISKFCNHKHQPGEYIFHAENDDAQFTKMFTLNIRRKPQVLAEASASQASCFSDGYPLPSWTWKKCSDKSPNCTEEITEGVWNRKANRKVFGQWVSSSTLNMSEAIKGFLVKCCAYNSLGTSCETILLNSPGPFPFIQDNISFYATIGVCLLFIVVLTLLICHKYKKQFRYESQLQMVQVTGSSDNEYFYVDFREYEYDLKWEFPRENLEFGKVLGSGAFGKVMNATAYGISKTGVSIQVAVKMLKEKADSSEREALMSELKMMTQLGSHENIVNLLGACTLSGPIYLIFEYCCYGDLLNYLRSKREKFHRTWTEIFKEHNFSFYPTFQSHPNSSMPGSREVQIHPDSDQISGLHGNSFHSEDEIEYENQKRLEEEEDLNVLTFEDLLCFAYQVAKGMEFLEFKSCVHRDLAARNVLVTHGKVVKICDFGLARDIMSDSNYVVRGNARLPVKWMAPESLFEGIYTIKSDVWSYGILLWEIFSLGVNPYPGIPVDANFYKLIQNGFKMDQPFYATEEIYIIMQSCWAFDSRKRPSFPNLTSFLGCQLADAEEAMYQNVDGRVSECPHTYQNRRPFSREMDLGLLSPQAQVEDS
Excerpt: The effect of potential modulators of kinase activity can be measured in a variety of different assays known in the art. For example, direct radiometric, indirect FRET or AlphaScreen assays may be used to assess the level of phosphorylation of a substrate in the presence of test compounds in order to determine the inhibitory affect of the compound on the kinase. Invitrogen (Carlsbad, Calif.) uses a FRET based assay for Btk, EGFR, EphB2, Flt3, lrak4, Kdr, MAP2K1, MAPKAPK2, PDGFRB, PKC theta, Stk6 and Yes. For these assays, compounds of the invention were screened by Invitrogen using Z′-Lyte™ kinase assay.
Briefly, the Invitrogen kinase assay involves use of a specific peptide substrate optimized for each kinase, containing a fluorophore at each end that make up the FRET pair. The peptide sensitivity to proteolytic cleavage depends on phosphorylation of the peptide. Non-phosphorylated peptide is cleaved by a protease while peptide phosphorylated by the kinase is not cleaved. Cleavage of the peptide disrupts the FRET between the donor (coumarin) and acceptor (fluorescein) fluorophores, resulting in an increase in the ratio of donor emission to acceptor emission. The emission ratio of coumarin to fluorescein is used to assess the reaction progress. The extent of phosphorylation is determined from the emission ratio, which is low when the kinase is active (phosphorylated peptide is not cleaved, FRET pair connected) or higher for inhibited kinase (non-phosphorylated peptide is cleaved, FRET pair separated). Thus, the assay involves a kinase reaction in the presence of varying concentrations of a given compound, a development reaction with site specific protease, and detection of the fluorescent emission ratio of coumarin and fluorscein. […] Reaction conditions for each kinase are determined to provide optimal reaction times, incubation temperature, kinase and ATP concentrations. Test samples are made up in 1× kinase buffer (50 mM HEPES pH 7.5, 50 mM MgCl2, 5 mM EGTA, 0.05% BRIJ-35) and compound at desired concentration prepared in DMSO such that the final DMSO is 1%. […] Typically, assay plates are prepared to 10 μl final volume per sample, adding 2.5 μl of compound at 4× the desired concentration in 4% DMSO (serial dilution of compound provides concentration curve), 5 μl of the desired kinase mixed with Z′-LYTE™ peptide substrate (2× in 2× kinase buffer, final peptide at 2 μM), and 2.5 μl of 4×ATP solution. All kinase except for MAP2K1 were at 10 μM ATP in the kinase reaction, while MAP2K1 was at 100 μM. Samples are mixed and the kinase reaction is incubated 1 hour at room temperature, after which 5 μl of development solution is added and mixed. After incubation for another 1 hour at room temperature, 5 μl of stop reagent is added to each sample and mixed. The fluorescence signals are measured to determine the emission ratio.

[6] = target: T2, Kdr (Homo sapiens, UniProt P35968); assay: Z'-Lyte FRET kinase assay (Invitrogen), Kdr; type: biochemical; conditions: read-out: IC50, activity toward kinase Kdr
T2 construct: purchased Invitrogen (assay run by Invitrogen)
T2 sequence (P35968 20-1356): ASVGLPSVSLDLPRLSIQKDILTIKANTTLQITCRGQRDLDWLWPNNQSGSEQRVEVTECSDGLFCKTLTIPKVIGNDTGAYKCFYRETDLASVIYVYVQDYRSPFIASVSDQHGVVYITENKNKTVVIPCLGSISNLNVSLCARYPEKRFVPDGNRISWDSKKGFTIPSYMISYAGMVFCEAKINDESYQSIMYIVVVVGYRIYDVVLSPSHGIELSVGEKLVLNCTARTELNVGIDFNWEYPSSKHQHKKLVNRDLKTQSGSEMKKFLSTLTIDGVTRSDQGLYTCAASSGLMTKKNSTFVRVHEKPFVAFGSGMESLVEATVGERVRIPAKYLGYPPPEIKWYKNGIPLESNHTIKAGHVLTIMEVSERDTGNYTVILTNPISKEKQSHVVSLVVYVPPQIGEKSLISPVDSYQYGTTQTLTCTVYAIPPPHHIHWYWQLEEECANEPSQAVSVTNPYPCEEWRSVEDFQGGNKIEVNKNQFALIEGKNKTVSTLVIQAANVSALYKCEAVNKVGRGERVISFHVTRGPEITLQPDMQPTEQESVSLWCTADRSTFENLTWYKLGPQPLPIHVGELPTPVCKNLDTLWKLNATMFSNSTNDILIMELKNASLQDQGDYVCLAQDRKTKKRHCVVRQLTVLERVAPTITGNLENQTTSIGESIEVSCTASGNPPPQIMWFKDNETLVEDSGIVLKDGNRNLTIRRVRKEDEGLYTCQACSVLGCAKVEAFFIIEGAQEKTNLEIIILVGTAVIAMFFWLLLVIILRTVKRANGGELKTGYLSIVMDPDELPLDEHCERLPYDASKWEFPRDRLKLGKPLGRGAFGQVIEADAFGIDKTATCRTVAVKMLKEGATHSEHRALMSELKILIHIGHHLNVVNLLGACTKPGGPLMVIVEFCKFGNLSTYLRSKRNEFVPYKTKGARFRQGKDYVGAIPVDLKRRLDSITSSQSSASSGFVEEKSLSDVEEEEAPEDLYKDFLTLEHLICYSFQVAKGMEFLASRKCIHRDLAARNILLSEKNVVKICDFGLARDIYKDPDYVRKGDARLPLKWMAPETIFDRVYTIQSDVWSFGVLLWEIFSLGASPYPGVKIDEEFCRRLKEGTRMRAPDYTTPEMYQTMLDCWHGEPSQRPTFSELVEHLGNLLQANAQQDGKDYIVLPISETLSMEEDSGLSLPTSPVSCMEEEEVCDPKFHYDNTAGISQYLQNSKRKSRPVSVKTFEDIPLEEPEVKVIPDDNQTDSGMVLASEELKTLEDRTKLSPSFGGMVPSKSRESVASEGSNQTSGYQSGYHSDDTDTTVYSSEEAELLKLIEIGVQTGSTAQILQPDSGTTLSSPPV

[7] = target: TrkA (Homo sapiens, UniProt P04629); assay: AlphaScreen kinase assay, TrkA; type: biochemical; conditions: read-out: IC50, activity toward kinase TrkA
Chain of TrkA (P04629 33-796): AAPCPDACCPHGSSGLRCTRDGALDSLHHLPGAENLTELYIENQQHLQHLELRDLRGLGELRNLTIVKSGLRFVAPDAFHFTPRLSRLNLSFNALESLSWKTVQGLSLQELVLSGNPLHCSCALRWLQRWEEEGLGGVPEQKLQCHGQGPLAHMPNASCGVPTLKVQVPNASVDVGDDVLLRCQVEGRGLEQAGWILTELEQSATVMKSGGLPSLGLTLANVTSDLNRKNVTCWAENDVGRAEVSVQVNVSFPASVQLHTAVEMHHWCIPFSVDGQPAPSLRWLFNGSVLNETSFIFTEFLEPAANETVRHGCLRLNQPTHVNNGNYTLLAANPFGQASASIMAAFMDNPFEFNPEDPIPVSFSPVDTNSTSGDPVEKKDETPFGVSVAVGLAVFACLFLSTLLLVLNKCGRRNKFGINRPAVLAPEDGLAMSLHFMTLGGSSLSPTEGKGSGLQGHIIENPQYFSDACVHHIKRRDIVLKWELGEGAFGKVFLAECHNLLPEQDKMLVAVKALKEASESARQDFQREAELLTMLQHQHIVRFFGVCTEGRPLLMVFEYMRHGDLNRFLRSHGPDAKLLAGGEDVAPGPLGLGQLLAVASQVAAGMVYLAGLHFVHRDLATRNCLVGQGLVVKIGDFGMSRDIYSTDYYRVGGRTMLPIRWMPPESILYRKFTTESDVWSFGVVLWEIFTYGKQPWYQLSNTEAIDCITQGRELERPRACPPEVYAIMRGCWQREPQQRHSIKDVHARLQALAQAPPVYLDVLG
Excerpt: (§1) AlphaScreen assay was used to screen additional kinases. The assay is similarly dependent on the phosphorylation of a peptide substrate. In this assay, an antibody that recognizes phosphorylated substrate is bound to an acceptor bead. The peptide substrate is attached to biotin, which binds to a donor head that contains streptavidin. Thus phosphorylated substrate is bound by antibody and streptavidin, bringing the donor and acceptor heads into close proximity when kinase is not inhibited. The donor produces singlet oxygen which results in emission from the acceptor when they are in close proximity. Conversely, when kinase is inhibited, the donor and acceptor beads are not associated and the emission from the acceptor is reduced.
(§2) AlphaScreen assays were done using compounds dissolved in DMSO to a concentration of 20 mM. The compounds were diluted accordingly to the desired final concentrations in each sample well, using 1:3 serial dilution for a total of 8 concentration points.

[8] = target: T3, B-Raf (Homo sapiens, UniProt P15056); assay: AlphaScreen kinase assay, B-Raf; type: biochemical; conditions: read-out: IC50, activity toward kinase B-Raf
T3 construct: purchased Upstate Biotechnology

[9] = target: Brk (Homo sapiens, UniProt Q13882); assay: AlphaScreen kinase assay, Brk; type: biochemical; conditions: read-out: IC50, activity toward kinase Brk
Chain of Brk (Q13882 whole entry): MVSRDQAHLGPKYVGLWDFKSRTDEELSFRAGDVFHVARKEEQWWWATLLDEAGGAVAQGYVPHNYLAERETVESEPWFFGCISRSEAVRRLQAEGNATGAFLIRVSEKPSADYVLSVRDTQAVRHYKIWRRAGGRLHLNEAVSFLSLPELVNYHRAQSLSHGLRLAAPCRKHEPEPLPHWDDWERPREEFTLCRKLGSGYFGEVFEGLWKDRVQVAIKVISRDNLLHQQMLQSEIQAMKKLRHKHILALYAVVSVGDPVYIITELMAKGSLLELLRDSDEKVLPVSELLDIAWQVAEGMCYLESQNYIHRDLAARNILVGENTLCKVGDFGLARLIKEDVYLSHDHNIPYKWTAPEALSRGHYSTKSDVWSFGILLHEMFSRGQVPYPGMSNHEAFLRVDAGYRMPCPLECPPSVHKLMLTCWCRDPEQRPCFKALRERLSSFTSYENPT
Excerpt: as §1, §2

[10] = target: T4, c-Raf-1 (Homo sapiens, UniProt P04049); assay: AlphaScreen kinase assay, c-Raf-1; type: biochemical; conditions: read-out: IC50, activity toward kinase c-Raf-1
T4 construct: purchased Upstate Biotechnology

[11] = target: Frk (Homo sapiens, UniProt P42685); assay: AlphaScreen kinase assay, Frk; type: biochemical; conditions: read-out: IC50, activity toward kinase Frk
Chain of Frk (P42685 whole entry): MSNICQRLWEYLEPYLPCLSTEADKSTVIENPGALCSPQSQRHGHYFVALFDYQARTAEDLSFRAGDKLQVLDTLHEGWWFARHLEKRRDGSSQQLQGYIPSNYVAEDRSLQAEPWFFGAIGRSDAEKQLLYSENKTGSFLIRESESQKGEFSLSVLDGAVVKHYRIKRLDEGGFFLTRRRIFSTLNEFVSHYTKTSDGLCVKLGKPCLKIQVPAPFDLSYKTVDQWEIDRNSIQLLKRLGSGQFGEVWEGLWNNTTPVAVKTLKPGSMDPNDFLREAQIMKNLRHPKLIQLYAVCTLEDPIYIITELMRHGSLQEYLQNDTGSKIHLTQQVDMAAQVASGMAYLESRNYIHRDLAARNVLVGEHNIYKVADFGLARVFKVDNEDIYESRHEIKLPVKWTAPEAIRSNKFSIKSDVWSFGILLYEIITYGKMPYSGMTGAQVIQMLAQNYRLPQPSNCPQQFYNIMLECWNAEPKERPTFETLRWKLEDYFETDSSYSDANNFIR
Excerpt: as §1, §2

[12] = target: ALK (Homo sapiens, UniProt Q9UM73); assay: AlphaScreen kinase assay, ALK; type: biochemical; conditions: read-out: IC50, activity toward kinase ALK
Chain of ALK (Q9UM73 19-1620): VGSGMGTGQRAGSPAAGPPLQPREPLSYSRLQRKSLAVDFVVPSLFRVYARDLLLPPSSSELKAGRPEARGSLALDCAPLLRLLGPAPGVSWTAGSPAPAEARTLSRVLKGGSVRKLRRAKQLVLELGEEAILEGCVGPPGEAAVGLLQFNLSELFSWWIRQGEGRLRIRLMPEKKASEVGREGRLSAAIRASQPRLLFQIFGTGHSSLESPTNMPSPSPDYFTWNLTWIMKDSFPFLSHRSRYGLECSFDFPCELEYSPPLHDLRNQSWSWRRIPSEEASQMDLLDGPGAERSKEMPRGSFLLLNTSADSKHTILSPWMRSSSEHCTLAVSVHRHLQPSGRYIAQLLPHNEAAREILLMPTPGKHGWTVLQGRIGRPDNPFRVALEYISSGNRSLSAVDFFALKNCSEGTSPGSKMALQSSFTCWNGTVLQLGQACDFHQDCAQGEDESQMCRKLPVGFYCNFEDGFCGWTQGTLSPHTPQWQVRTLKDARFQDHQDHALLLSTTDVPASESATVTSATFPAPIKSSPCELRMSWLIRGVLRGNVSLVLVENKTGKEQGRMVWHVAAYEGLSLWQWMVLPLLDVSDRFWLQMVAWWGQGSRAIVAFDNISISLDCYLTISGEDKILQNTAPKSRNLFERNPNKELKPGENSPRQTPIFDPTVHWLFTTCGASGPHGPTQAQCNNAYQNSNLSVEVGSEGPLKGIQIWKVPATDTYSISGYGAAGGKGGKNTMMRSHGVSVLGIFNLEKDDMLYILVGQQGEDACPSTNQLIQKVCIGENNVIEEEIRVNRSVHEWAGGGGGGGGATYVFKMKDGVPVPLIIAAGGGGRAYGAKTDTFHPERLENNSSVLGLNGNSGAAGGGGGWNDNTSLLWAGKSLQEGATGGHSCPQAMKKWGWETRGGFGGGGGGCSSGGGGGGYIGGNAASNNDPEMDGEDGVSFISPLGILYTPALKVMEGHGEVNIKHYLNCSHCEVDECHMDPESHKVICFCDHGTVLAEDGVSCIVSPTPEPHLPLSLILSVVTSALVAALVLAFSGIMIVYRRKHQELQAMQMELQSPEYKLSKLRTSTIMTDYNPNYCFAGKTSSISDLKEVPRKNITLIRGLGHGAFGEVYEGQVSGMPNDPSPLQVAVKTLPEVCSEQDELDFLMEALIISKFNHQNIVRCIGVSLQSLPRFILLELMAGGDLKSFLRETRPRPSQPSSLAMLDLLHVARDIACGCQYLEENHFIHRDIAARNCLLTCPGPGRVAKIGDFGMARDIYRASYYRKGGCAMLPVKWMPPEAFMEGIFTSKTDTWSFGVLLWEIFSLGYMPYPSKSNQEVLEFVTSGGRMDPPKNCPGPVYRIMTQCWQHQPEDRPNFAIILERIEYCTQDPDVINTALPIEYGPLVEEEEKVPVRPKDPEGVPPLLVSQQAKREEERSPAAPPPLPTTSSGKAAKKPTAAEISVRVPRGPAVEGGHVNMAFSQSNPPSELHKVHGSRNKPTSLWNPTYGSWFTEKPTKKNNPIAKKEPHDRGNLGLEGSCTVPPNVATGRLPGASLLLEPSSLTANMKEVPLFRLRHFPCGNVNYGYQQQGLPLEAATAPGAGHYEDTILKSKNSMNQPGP
Excerpt: as §1, §2

[13] = target: T5, B-Raf V600E (Homo sapiens, UniProt P15056, V600E); assay: AlphaScreen kinase assay, B-Raf V600E; type: biochemical; conditions: read-out: IC50, activity toward kinase B-Raf V600E
T5 construct: P4254. pFastBacBD-CDC37 BRAF D437-K722-X, V600E; His6 with pFastBac HT leader (TEV site) (N); made in house; host or cells: Sf9 (baculovirus; chaperone CDC37 co-expressed)
T5 sequence (P15056 with tags, fused parts or gaps V600E): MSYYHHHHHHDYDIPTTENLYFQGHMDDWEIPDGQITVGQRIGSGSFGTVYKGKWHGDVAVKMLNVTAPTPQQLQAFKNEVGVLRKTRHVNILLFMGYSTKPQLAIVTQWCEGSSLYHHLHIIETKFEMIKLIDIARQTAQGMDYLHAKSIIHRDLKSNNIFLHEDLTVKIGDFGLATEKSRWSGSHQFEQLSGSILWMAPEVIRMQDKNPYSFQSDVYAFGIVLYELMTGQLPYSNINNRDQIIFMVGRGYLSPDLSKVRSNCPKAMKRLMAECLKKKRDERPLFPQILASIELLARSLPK

[14] = test system: AML blasts harboring FLT3/ITD mutations; conditions: primary AML blasts harboring FLT3/ITD mutations; cited from earlier work

SMILES: CS(=O)(=O)Nc1ccc([N+](=O)[O-])cc1OC1CCCCC1 [NS-398]
proliferation and growth of MKN28 cells [1]: significantly inhibit proliferation and growth

SMILES: COc1ccc2c(c1)c(CC(=O)O)c(C)n2C(=O)c1ccc(Cl)cc1 [indomethacin]
proliferation and growth of MKN28 cells [1]: significantly inhibit proliferation and growth

SMILES: CN[C@@H]1C[C@H]2O[C@@](C)([C@@H]1OC)n1c3ccccc3c3c4c(c5c6ccccc6n2c5c31)C(=O)N[C@H]4O [UCN-01, 7-hydroxystaurosporine]
increase of the cytotoxicity of TMZ ([2]; combined with temozolomide): 5 fold
toxicity of the inhibitor alone ([2]; without TMZ): not in itself toxic

SMILES: CCSCc1ccc2c(c1)c1c3c(c4c5cc(CSCC)ccc5n5c4c1n2[C@H]1C[C@](O)(C(=O)OC)[C@]5(C)O1)CNC3=O [CEP-1347]
brain TNF production [3]: inhibited brain TNF production
cytokine production (TNF-alpha, IL-6, MCP-1) [4]: reduced cytokine production

IC50 [5]: ≤ 10 µM
IC50 [6]: ≤ 10 µM
IC50 [7]: ≤ 10 µM
IC50 [8]: ≤ 10 µM
IC50 [9]: ≤ 10 µM
IC50 [10]: ≤ 10 µM
IC50 [11]: ≤ 10 µM
IC50 [12]: ≤ 10 µM
IC50 [13]: ≤ 10 µM
SMILES: CCCS(=O)(=O)Nc1ccc(F)c(C(OC)c2c[nH]c3ncc(OC)cc23)c1F (stereo not shown) [Compound P-1244, Propane-1-sulfonic acid {2,4-difluoro-3-[methoxy-(5-methoxy-1H-pyrrolo[2,3-b]pyridin-3-yl)-methyl]-phenyl}-amide]

SMILES: Cc1cc2ncc(-c3ccccc3)nc2cc1C [AG1295]
cytotoxicity to AML blasts [14]: specifically cytotoxic
